Several values for one entry are separate records, joined by “and”; a condition that tells them apart may be missing. Equal entries are not always repeated.
Experiments:
[1] = Animal weight of tumor-bearing mice
Ba/F3-RET^M918T = assay: Growth inhibition assay in Ba/F3 cells (CellTiter-Glo, 72 h); format: cell-based; details: Mus musculus, BaF3, 72 h, read-out: GI50 value (Mean ± SD), Ba/F3-RET^M918T, CellTiter-Glo, 72 h
HBECp53-EV cells = assay: Growth inhibition (alamarBlue, 96 h); format: cell-based, human; details: for raw viability signal (Source Data Fig. 3b-c): HBEC-EV, replicate sets
[2] = target: T1, panel of 255 (vepafestinib) or 256 (all other inhibitors) recombinant kinases (Homo sapiens, UniProt P16234); assay: Kinase selectivity profiling at a single concentration (Carna Biosciences); format: biochemical; details: 23 nM
T1 construct: purchased Carna Biosciences

[3] = target: panel of 255 (vepafestinib) or 256 (all other inhibitors) recombinant kinases; assay: as above; format: biochemical; details: 23 nM, panel of 255 recombinant kinases
[4] = target: T2, panel of 255 (vepafestinib) or 256 (all other inhibitors) recombinant kinases (Homo sapiens, UniProt P35916); assay: as above; format: biochemical; details: 23 nM
T2 construct: purchased Carna Biosciences
T2 sequence (P35916 25-1363): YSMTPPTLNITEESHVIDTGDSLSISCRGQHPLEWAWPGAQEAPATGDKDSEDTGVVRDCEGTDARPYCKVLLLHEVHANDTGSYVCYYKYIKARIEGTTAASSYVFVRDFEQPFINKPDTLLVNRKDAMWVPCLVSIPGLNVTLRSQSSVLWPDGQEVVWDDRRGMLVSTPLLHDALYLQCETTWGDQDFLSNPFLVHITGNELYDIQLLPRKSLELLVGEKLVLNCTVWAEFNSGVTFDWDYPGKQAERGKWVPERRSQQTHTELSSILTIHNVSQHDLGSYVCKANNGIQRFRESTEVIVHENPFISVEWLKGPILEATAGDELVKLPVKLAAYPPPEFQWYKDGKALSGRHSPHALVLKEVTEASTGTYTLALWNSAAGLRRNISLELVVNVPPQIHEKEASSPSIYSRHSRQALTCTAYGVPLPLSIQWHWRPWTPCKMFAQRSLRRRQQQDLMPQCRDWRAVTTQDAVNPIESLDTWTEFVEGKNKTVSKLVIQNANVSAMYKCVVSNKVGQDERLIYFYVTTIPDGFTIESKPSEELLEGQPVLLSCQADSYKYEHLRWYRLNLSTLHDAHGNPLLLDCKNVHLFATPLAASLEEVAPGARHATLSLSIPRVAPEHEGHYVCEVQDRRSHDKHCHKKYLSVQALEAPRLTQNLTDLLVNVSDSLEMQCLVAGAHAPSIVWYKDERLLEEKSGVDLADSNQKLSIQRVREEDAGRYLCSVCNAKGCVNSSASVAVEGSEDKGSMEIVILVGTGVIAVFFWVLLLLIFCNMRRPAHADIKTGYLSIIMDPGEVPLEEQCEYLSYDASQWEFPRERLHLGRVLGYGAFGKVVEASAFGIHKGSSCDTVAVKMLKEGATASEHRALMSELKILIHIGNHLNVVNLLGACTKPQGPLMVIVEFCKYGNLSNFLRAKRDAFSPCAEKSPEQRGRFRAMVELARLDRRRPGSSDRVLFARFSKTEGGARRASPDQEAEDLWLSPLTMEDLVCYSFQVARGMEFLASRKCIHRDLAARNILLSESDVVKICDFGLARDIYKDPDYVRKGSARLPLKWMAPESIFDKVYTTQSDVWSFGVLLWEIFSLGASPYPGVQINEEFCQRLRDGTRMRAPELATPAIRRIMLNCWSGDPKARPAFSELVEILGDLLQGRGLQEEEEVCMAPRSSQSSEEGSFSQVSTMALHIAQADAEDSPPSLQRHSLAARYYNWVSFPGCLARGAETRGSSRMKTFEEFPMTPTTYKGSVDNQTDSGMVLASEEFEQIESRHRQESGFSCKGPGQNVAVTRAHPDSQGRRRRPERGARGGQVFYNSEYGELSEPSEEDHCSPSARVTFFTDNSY

T1 sequence (P16234 24-1089): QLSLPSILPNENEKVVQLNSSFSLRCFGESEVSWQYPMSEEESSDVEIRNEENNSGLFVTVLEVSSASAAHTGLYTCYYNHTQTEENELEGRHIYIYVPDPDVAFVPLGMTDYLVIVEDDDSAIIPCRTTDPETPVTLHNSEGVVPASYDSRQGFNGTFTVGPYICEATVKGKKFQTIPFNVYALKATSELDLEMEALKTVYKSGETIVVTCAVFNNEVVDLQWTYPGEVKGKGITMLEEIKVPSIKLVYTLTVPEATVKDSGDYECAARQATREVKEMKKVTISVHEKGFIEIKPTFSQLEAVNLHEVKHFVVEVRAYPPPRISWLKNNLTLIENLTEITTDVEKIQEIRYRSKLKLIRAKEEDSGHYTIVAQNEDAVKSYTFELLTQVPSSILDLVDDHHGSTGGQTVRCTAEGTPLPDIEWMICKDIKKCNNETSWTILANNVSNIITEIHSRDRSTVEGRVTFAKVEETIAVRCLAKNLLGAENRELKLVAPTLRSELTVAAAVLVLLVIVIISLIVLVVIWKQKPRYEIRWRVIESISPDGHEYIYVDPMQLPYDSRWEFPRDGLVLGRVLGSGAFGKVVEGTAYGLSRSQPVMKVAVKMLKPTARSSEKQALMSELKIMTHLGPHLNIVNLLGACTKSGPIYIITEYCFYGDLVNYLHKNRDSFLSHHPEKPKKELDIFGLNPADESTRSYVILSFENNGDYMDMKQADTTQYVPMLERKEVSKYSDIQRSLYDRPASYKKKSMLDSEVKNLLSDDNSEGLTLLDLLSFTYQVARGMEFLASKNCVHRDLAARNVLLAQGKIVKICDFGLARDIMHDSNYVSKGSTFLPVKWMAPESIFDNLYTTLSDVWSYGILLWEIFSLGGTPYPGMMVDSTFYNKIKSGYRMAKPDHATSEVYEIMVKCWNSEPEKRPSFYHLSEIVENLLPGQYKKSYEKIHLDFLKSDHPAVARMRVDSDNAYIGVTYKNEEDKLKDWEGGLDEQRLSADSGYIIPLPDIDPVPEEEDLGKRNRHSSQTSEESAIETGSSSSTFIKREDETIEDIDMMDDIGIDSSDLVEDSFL

## COCc1ccc(NC(=O)c2c(C#CCN3CCOCC3)n(C3(C)CC3)c3ncnc(N)c23)cc1 [Vepafestinib, 4-amino-N-[4-(methoxymethyl)phenyl]-7-(1-methylcyclopropyl)-6-[3-(morpholin-4-yl)prop-1-yn-1-yl]-7H-pyrrolo[2,3-d]pyrimidine-5-carboxamide]
[1]; Ba/F3-KIF5B::RET G810R (Fig 8f), Vepafestinib 10 mg/kg BID, day 8
  Animal Weight, Mean: 24.90 g
[1]; Ba/F3-KIF5B::RET G810R (Fig 8f), Vepafestinib 10 mg/kg BID, day 11
  Animal Weight, Mean: 25.72 g
[1]; Ba/F3-KIF5B::RET G810R (Fig 8f), Vepafestinib 10 mg/kg BID, day 15
  Animal Weight, Mean: 25.22 g
[1]; Ba/F3-KIF5B::RET G810R (Fig 8g), Vepafestinib 50 mg/kg BID, day 1
  Animal Weight, Mean: 23.9 g
[1]; Ba/F3-KIF5B::RET G810R (Fig 8g), Vepafestinib 50 mg/kg BID, day 4
  Animal Weight, Mean: 24.7 g
[1]; Ba/F3-KIF5B::RET G810R (Fig 8g), Vepafestinib 50 mg/kg BID, day 8
  Animal Weight, Mean: 24.9 g
[1]; Ba/F3-KIF5B::RET G810R (Fig 8g), Vepafestinib 50 mg/kg BID, day 11
  Animal Weight, Mean: 24.3 g
[1]; Ba/F3-KIF5B::RET G810R (Fig 8g), Vepafestinib 50 mg/kg BID, day 15
  Animal Weight, Mean: 24.2 g
[1]; Ba/F3-KIF5B::RET tumor-bearing mice (Ext. Data Fig 8i), 50 mg/kg BID, day 1
  Animal Weight (g), Mean: 25.8 g
[1]; Ba/F3-KIF5B::RET tumor-bearing mice (Ext. Data Fig 8i), 50 mg/kg BID, day 4
  Animal Weight (g), Mean: 26.2 g
[1]; Ba/F3-KIF5B::RET tumor-bearing mice (Ext. Data Fig 8i), 50 mg/kg BID, day 8
  Animal Weight (g), Mean: 26.0 g
[1]; Ba/F3-KIF5B::RET tumor-bearing mice (Ext. Data Fig 8i), 50 mg/kg BID, day 11
  Animal Weight (g), Mean: 25.3 g
[1]; Ba/F3-KIF5B::RET tumor-bearing mice (Ext. Data Fig 8i), 50 mg/kg BID, day 15
  Animal Weight (g), Mean: 26.9 g
[1]; Ba/F3-KIF5B::RET tumor-bearing mice (Ext. Data Fig 8h), 50 mg/kg BID, day 1
  Animal Weight (g), Mean: 28.4 g
[1]; Ba/F3-KIF5B::RET tumor-bearing mice (Ext. Data Fig 8h), 50 mg/kg BID, day 4
  Animal Weight (g), Mean: 28.5 g
[1]; Ba/F3-KIF5B::RET tumor-bearing mice (Ext. Data Fig 8h), 50 mg/kg BID, day 8
  Animal Weight (g), Mean: 29.3 g
[1]; Ba/F3-KIF5B::RET tumor-bearing mice (Ext. Data Fig 8h), 50 mg/kg BID, day 11
  Animal Weight (g), Mean: 29.0 g
[1]; Ba/F3-KIF5B::RET tumor-bearing mice (Ext. Data Fig 8h), 50 mg/kg BID, day 15
  Animal Weight (g), Mean: 29.0 g
[1]; ECLC5B xenograft, all dosages, P > 0.05
  effect on animal health or animal weight: No dosage of vepafestinib had any adverse effect
[1]; ECLC5 Xenografts, 25 mg/kg BID, treatment day 7, individual animals, 25 mg/kg
  Animal Weight: 24 g (2×) and 22 g and 21 g and 27 g
[1]; ECLC5 Xenografts, 25 mg/kg BID, treatment day 11, individual animals, 25 mg/kg
  Animal Weight: 24 g and 22 g
[1]; ECLC5 Xenografts, 50 mg/kg BID, treatment day 7, individual animals, 50 mg/kg
  Animal Weight: 20 g and 23 g (2×) and 21 g and 22 g
[1]; ECLC5 Xenografts, 50 mg/kg QD, treatment day 7, individual animals, 50 mg/kg
  Animal Weight: 22 g (2×) and 21 g and 23 g and 24 g
[1]; ECLC5 Xenografts, 100 mg/kg QD, treatment day 7, individual animals, 100 mg/kg
  Animal Weight: 22 g (3×) and 24 g and 25 g
[1]; LC-2/ad xenograft mice, 25 mg/kg BID, day 0
  Animal Weight (g), Mean: 25.9 g
[1]; LC-2/ad xenograft mice, 25 mg/kg BID, day 4
  Animal Weight (g), Mean: 25.1 g
[1]; LC-2/ad xenograft mice, 25 mg/kg BID, day 8
  Animal Weight (g), Mean: 24.6 g
[1]; LC-2/ad xenograft mice, 25 mg/kg BID, day 11
  Animal Weight (g), Mean: 24.4 g
[1]; LC-2/ad xenograft mice, 25 mg/kg BID, day 15
  Animal Weight (g), Mean: 23.5 g
[1]; LC-2/ad xenograft mice, 50 mg/kg BID, day 0
  Animal Weight (g), Mean: 25.1 g
[1]; LC-2/ad xenograft mice, 50 mg/kg BID, day 4
  Animal Weight (g), Mean: 25.3 g
[1]; LC-2/ad xenograft mice, 50 mg/kg BID, day 8
  Animal Weight (g), Mean: 24.2 g
[1]; LC-2/ad xenograft mice, 50 mg/kg BID, day 11
  Animal Weight (g), Mean: 24.4 g
[1]; LC-2/ad xenograft mice, 50 mg/kg BID, day 15
  Animal Weight (g), Mean: 23.5 g
[1]; LC-2/ad xenograft mice, 50 mg/kg QD, day 0
  Animal Weight (g), Mean: 25.0 g
[1]; LC-2/ad xenograft mice, 50 mg/kg QD, day 4
  Animal Weight (g), Mean: 24.8 g
[1]; LC-2/ad xenograft mice, 50 mg/kg QD, day 8
  Animal Weight (g), Mean: 24.7 g
[1]; LC-2/ad xenograft mice, 50 mg/kg QD, day 11
  Animal Weight (g), Mean: 25.0 g
[1]; LC-2/ad xenograft mice, 50 mg/kg QD, day 15
  Animal Weight (g), Mean: 24.3 g
[1]; NIH-3T3-CCDC6::RET xenografts, 25 mg/kg BID, day 0, 25 mg/kg
  Animal Weight: 22 g and 21 g and 24 g
[1]; NIH-3T3-CCDC6::RET xenografts, 25 mg/kg BID, day 2, 25 mg/kg
  Animal Weight: 23 g and 21 g and 22 g
[1]; NIH-3T3-CCDC6::RET xenografts, 25 mg/kg BID, day 5, 25 mg/kg
  Animal Weight: 23 g and 22 g and 24 g
[1]; NIH-3T3-CCDC6::RET xenografts, 25 mg/kg BID, day 8, 25 mg/kg
  Animal Weight: 23 g and 22 g
[1]; NIH-3T3-CCDC6::RET xenografts, 25 mg/kg QD, day 0, 25 mg/kg
  Animal Weight: 24 g and 22 g and 23 g and 21 g
[1]; NIH-3T3-CCDC6::RET xenografts, 25 mg/kg QD, day 2, 25 mg/kg
  Animal Weight: 25 g and 24 g and 22 g
[1]; NIH-3T3-CCDC6::RET xenografts, 25 mg/kg QD, day 5, 25 mg/kg
  Animal Weight: 22 g and 23 g and 24 g
[1]; NIH-3T3-CCDC6::RET xenografts, 25 mg/kg QD, day 8, 25 mg/kg
  Animal Weight: 25 g and 23 g and 24 g
[1]; NIH-3T3-CCDC6::RET xenografts, 50 mg/kg BID, day 0, 50 mg/kg
  Animal Weight: 22 g and 19 g and 21 g
[1]; NIH-3T3-CCDC6::RET xenografts, 50 mg/kg BID, day 2, 50 mg/kg
  Animal Weight: 20 g and 24 g and 23 g and 21 g and 22 g
[1]; NIH-3T3-CCDC6::RET xenografts, 50 mg/kg BID, day 5, 50 mg/kg
  Animal Weight: 21 g and 24 g and 23 g and 20 g
[1]; NIH-3T3-CCDC6::RET xenografts, 50 mg/kg BID, day 8, 50 mg/kg
  Animal Weight: 21 g and 23 g and 24 g
[1]; NIH-3T3-CCDC6::RET xenografts, 50 mg/kg QD, day 0, 50 mg/kg
  Animal Weight: 22 g and 21 g
[1]; NIH-3T3-CCDC6::RET xenografts, 50 mg/kg QD, day 2, 50 mg/kg
  Animal Weight: 24 g and 23 g
[1]; NIH-3T3-CCDC6::RET xenografts, 50 mg/kg QD, day 5, 50 mg/kg
  Animal Weight: 23 g and 24 g
[1]; NIH-3T3-CCDC6::RET xenografts, 50 mg/kg QD, day 8, 50 mg/kg
  Animal Weight: 24 g and 25 g
[1]; NIH-3T3-CCDC6::RET xenografts, 100 mg/kg QD, day 0, 100 mg/kg
  Animal Weight: 22 g and 21 g and 20 g and 19 g
[1]; NIH-3T3-CCDC6::RET xenografts, 100 mg/kg QD, day 2, 100 mg/kg
  Animal Weight: 23 g and 22 g and 19 g
[1]; NIH-3T3-CCDC6::RET xenografts, 100 mg/kg QD, day 5, 100 mg/kg
  Animal Weight: 23 g and 22 g and 24 g and 21 g
[1]; NIH-3T3-CCDC6::RET xenografts, 100 mg/kg QD, day 8, 100 mg/kg
  Animal Weight: 23 g and 22 g and 24 g and 21 g
Ba/F3-RET^M918T
  GI50: 0.00194 ± 0.00088 µM
HBECp53-EV cells; 0.01 nM
  raw viability signal (Source Data Fig. 3b-c): 27037 and 29740.2
HBECp53-EV cells; 0.1 nM
  raw viability signal (Source Data Fig. 3b-c): 19425.3 (2×) and 27020.1 and 29597.7
HBECp53-EV cells; 1 nM
  raw viability signal (Source Data Fig. 3b-c): 18975.7 (2×) and 23808.3 and 29292.2
HBECp53-EV cells; 10 nM
  raw viability signal (Source Data Fig. 3b-c): 19412.6 (2×) and 25517.4 and 26617.3
HBECp53-EV cells; 100 nM
  raw viability signal (Source Data Fig. 3b-c): 19354.5 (2×) and 27120.8 and 27640.4
HBECp53-EV cells; 1000 nM
  raw viability signal (Source Data Fig. 3b-c): 20047.9 (2×) and 18738.8 and 27632.3
HBECp53-EV cells; 10000 nM
  raw viability signal (Source Data Fig. 3b-c): 7853.82 (2×) and 1053.31 and 23430.8
HBECp53-EV cells; Homo sapiens, 96 h, read-out: IC50 for Inhibition of Growth (95% CI)
  IC50: 7.91 µM
[2]
  % Inhibiton PDGFRα: 12.4%
[3]
  kinases inhibited by >50%: one and RET was the only kinase inhibited by >50%
[4]
  % Inhibiton FLT4: 46.9%
